From US8791132B2, “Compounds and methods for treatment of hypertension” (Medivation Technologies, Inc., priority 2011, dated 2014)
Where “and” joins values, the source holds several entries; their conditions need not be identical. Equal values may be shown once. Read-outs that look alike come from different tables or passages of the source.

Tests used:
[1] = target: T1, human recombinant adrenergic α2B receptor (Homo sapiens, UniProt P18089); experiment: Radioligand binding, adrenergic α2B ([3H]Rauwolscine); conditions: for Ki: read-out: Ki α2B
T1 construct: expressed in transfected cells; host or cells: CHO-K1
T1 sequence (P18089 1-450): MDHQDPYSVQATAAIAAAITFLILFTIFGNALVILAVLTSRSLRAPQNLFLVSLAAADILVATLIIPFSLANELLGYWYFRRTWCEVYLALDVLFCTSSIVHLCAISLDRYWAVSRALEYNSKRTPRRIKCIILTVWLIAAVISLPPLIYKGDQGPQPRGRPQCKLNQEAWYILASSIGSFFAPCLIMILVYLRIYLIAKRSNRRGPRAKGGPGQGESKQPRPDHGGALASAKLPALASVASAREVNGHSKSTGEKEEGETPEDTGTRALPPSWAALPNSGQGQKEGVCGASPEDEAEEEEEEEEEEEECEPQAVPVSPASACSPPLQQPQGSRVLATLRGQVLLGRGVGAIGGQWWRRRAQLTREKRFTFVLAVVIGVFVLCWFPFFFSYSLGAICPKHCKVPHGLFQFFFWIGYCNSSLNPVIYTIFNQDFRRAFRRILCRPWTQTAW
How it was run: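 Readout: percent inhibition of specific [3H]Rauwolscine binding, measured by filtration and counting. Conditions: CHO-K1 cell-expressed receptor, 2.5 nM radioligand, 60 min, 25° C, Tris-HCl pH 7.4 buffer with MgCl2, EDTA, BSA. Non-specific binding: 10 μM Prazosin.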

[2] = target: T2, human recombinant adrenergic α2A receptor (Homo sapiens, UniProt P08913); experiment: Radioligand binding, adrenergic α2A ([3H]MK-912)
T2 construct: expressed in transfected cells; host or cells: insect Sf9 cells
T2 sequence (P08913 1-465): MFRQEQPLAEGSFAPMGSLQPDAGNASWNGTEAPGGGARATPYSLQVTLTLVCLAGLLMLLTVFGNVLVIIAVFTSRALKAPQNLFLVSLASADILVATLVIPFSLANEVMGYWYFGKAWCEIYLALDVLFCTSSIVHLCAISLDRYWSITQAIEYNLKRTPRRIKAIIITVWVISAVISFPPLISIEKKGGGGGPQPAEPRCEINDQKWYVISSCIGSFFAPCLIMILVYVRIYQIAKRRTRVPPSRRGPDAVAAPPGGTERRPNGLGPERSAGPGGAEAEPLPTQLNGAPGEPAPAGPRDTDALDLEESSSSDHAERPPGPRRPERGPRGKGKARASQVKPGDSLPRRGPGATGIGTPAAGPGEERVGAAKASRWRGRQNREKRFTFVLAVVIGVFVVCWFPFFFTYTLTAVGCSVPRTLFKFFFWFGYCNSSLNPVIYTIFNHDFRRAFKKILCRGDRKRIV
How it was run: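 Receptor expressed in insect Sf9 cells, assayed in 50 mM Tris-HCl pH 7.4 with 12.5 mM MgCl2 and 2 mM EDTA. Compounds incubated with 1 nM [3H]MK-912 for 60 min at 25 °C; nonspecific binding defined with 10 μM WB-4101. Filter-bound radioactivity counted; values are percent inhibition of specific binding.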

[3] = target: T3, human recombinant adrenergic α1D receptor (Homo sapiens, UniProt P25100); experiment: Radioligand binding, adrenergic α1D ([3H]Prazosin); conditions: [3H]Prazosin
T3 construct: expressed in transfected cells; host or cells: HEK-293
T3 sequence (P25100 1-572): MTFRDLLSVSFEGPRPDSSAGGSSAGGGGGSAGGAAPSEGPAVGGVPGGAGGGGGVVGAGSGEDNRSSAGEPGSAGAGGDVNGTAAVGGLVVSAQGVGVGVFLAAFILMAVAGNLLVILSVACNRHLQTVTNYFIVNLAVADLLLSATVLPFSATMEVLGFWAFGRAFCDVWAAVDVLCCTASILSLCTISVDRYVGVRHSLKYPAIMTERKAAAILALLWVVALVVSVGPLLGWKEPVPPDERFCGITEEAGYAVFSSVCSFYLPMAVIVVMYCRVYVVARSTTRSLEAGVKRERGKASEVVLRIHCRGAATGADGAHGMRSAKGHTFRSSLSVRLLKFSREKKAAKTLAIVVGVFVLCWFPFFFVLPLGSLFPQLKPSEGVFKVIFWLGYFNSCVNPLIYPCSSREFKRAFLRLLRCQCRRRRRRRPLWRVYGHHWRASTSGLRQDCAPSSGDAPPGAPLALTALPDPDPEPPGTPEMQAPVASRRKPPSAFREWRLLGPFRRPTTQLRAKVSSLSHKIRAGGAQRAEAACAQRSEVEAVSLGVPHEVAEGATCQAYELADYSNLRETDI
Procedure: Compounds were incubated with 0.6 nM [3H]Prazosin for 60 min at 25° C. Non-specific binding was estimated in the presence of 10 μM phentolamine. Receptor proteins were filtered and washed, the filters were then counted to determine [3H]Prazosin specifically bound. […] Biochemical assay results are presented as the percent inhibition of specific binding in Table B1.

[4] = compound at 0.1 μM, [3H]Rauwolscine, repeat datapoints each shown, 0.1 µM
[5] = read-out: Percentage inhibition of ligand binding, Adrenergic α2B (0.03 μM), compound at 0.03 μM, [3H]Rauwolscine, repeat datapoints each shown
[6] = read-out: Percentage inhibition of ligand binding, Adrenergic α2B (0.1 μM), compound at 0.1 μM, [3H]Rauwolscine, repeat datapoints each shown
[7] = compound at 0.1 μM, [3H]MK-912, repeat datapoints each shown, 0.1 µM
[8] = read-out: Percentage inhibition of ligand binding, Adrenergic α2A (0.03 μM), compound at 0.03 μM, [3H]MK-912, repeat datapoints each shown
[9] = read-out: Percentage inhibition of ligand binding, Adrenergic α2A (0.1 μM), compound at 0.1 μM, [3H]MK-912, repeat datapoints each shown
[10] = read-out: Percentage inhibition of ligand binding, Adrenergic α1D (0.1 μM), compound at 0.1 μM, repeat datapoints each shown
[11] = compound at 0.03 μM, [3H]Rauwolscine, repeat assays, each datapoint shown, read-out: Percentage inhibition of ligand binding, Adrenergic α2B
[12] = compound at 0.1 μM, [3H]Rauwolscine, repeat assays, each datapoint shown, read-out: Percentage inhibition of ligand binding, Adrenergic α2B
[13] = compound at 0.1 μM, [3H]MK-912, repeat assays, each datapoint shown, read-out: Percentage inhibition of ligand binding, Adrenergic α2A
[14] = compound at 0.1 μM, repeat assays, each datapoint shown, read-out: Percentage inhibition of ligand binding, Adrenergic α1D
[15] = read-out: Percentage inhibition of ligand binding, Adrenergic α1D (0.03 μM), compound at 0.03 μM, repeat datapoints each shown
[16] = compound at 0.03 μM, [3H]Rauwolscine, repeat assays, each datapoint shown, 0.03 µM
[17] = compound at 0.1 μM, [3H]Rauwolscine, repeat assays, each datapoint shown, 0.1 µM

Row | Compound | Percentage inhibition of ligand binding, Adrenergic α2B (0.1 μM) [1, 4] [%] | Ki [1] | inhibition at 0.03 µM [1, 5] [%] | inhibition at 0.1 µM [1, 6] [%] | Ki [2] | Percentage inhibition of ligand binding, Adrenergic α2A (0.1 μM) [2, 7] [%] | inhibition at 0.1 µM [2, 9] [%] | inhibition at 0.1 µM [3, 10] [%] | also measured
1 | C/C(=C\n1c2c(c3cc(C)ccc31)CN(C)CC2)c1sccc1C [compound 189] | 107 | 0.86 nM | 96 | 104 | 2.86 nM | 86 | 81 | 16 | inhibition at 0.03 µM [2, 8]: 71%
2 | Cc1ccc2c(c1)c1c(n2C2=C(c3ccc4c(ccn4C)c3)CCC2)CCN(C)C1 [compound 191, 2,8-dimethyl-5-(2-(1-methyl-1H-indol-5-yl)cyclopent-1-enyl)-2,3,4,5-tetrahydro-1H-pyrido[4,3-b]indole] | 99 | 3.23 nM | 84 | 89 | 2.1 nM | 98 | 89 | 43 | inhibition at 0.03 µM [2, 8]: 85%
3 | Cc1ccc2c(c1)c1c(n2C2=C(c3ccncc3)CCC2)CCN(C)C1 [compound 114] | 71 | 17.4 nM | 42 | 58 | – | – | 21 | 15 | –
4 | CCN1CCc2c(c3cc(C)ccc3n2CCc2ccncc2)C1 [compound 85] | – | – | – | – | – | – | – | – | inhibition at 0.03 µM [1, 11]: 40%; inhibition at 0.1 µM [1, 12]: 60%; inhibition at 0.1 µM [2, 13]: 12%; inhibition at 0.1 µM [3, 14]: 17%
5 | COc1ccc(/C(C)=C/n2c3c(c4cc(C)ccc42)CCN(C)CC3)cc1F [compound 241] | 93 | – | – | 91 | – | 78 | 75 | 47 | Percentage inhibition of ligand binding, Adrenergic α1D (0.1 μM) ([3]; compound at 0.1 μM, repeat datapoints each shown, 0.1 µM): 49%
6 | C/C(=C\n1c2c(c3cc(Cl)ccc31)CN(C)CC2)c1ccncc1 [compound 185, 8-chloro-2,3,4,5-tetrahydro-2-methyl-5-((E)-2-(pyridin-4-yl)prop-1-enyl)-1H-pyrido[4,3-b]indole] | 97 | 3.8 nM | 73 | 94 | 21 nM | – | 62 | 58 | Percentage inhibition of ligand binding, Adrenergic α2B (0.03 μM) ([1]; compound at 0.03 μM, [3H]Rauwolscine, repeat datapoints each shown, 0.03 µM): 77%; inhibition at 0.03 µM [2, 8]: 37%; inhibition at 0.03 µM [3, 15]: 47%
7 | CCN1CCc2c(c3cc(C)ccc3n2CCc2ccccc2)C1 [compound 201] | – | – | 16 | 36 | – | – | 67 | 18 | –
8 | Cc1ccc2c(c1)c1c(n2CCc2ccc(CO)nc2)CCN(C)C1 [compound 91] | – | 9.84 nM and 10.7 nM and 12 nM | – | 87 | – | – | – | 32 | Percentage inhibition of ligand binding, Adrenergic α2B [1, 16]: 56%; inhibition at 0.03 µM [1, 11]: 53%; Percentage inhibition of ligand binding, Adrenergic α2B [1, 17]: 83%; inhibition at 0.1 µM [1, 12]: 82%; inhibition at 0.03 µM ([2]; compound at 0.03 μM, [3H]MK-912, repeat assays, each datapoint shown, read-out: Percentage inhibition of ligand binding, Adrenergic α2A): 6%; inhibition at 0.1 µM [2, 13]: 5%; Percentage inhibition of ligand binding, Adrenergic α1D ([3]; compound at 0.03 μM, repeat assays, each datapoint shown, 0.03 µM): 11%; inhibition at 0.03 µM ([3]; compound at 0.03 μM, repeat assays, each datapoint shown, read-out: Percentage inhibition of ligand binding, Adrenergic α1D): 7%; Percentage inhibition of ligand binding, Adrenergic α1D ([3]; compound at 0.1 μM, repeat assays, each datapoint shown, 0.1 µM): 30%; inhibition at 0.1 µM [3, 14]: 25%; inhibition at 0.03 µM [3, 15]: 21%
9 | CCN1CCc2c(c3cc(C)ccc3n2CC(O)c2ccc(C)cc2)C1 (centres unmarked) [compound 203] | – | – | 23 | 41 | – | 88 | – | 47 | –
10 | Cc1cnc2c(c1)c1c(n2CCc2ccc(C)nc2)CCN(C)C1 [II-110, 3,6-dimethyl-9-(2-(6-methylpyridin-3-yl)ethyl)-6,7,8,9-tetrahydro-5H-pyrrolo[2,3-b:4,5-c′]dipyridine] | – | – | 11 | 47 | – | 2 | 1 | 17 | –
11 | Cc1ccc2c(c1)c1c(n2CC(C)(O)c2cccnc2)CCN(C)C1 (single isomer, unassigned) [5b, 1-(1,2,3,4-tetrahydro-2,8-dimethylpyrido[4,3-b]indol-5-yl)-2-(pyridin-3-yl)propan-2-ol] | – | 0.95 nM and 1.06 nM and 4.53 nM | – | – | 152 nM and 192 nM and 195 nM | – | – | – | Percentage inhibition of ligand binding, Adrenergic α2B [1, 16]: 81% and 86% and 90% and 100%; Percentage inhibition of ligand binding, Adrenergic α2B [1, 17]: 82% and 100% and 107%; Percentage inhibition of ligand binding, Adrenergic α2A ([2]; compound at 0.1 μM, [3H]MK-912, repeat assays, each datapoint shown, 0.1 µM): 18% and 21% and 22%; inhibition at 0.1 µM [3, 14]: 1%
